Values quoted from earlier work, collected in PMC4691061, “Repositioning of Thiourea-Containing Drugs as Tyrosinase Inhibitors” (International Journal of Molecular Sciences, 2015).
pIC50: −log10 of the molar value.

Molecular target: tyrosinase
Details: tyrosinase; read-out: IC50; cited from earlier work

## CCc1cc(C(N)=S)ccn1 [ethionamide]
  pIC50: 5.40
